Experimental data: patent US12577235B2, “Crystalline form of CXCR2 antagonist and application thereof” (Shenzhen Optimum Biological Technology Co., Ltd, priority 2019, dated 2026)

Key:
[1] = Stability assay of solid crystalline form A at high temperature, high humidity, high temperature and high humidity, and illumination; assay type: physicochemical; settings: for Stability and druggability (conclusion in words): solid state stress conditions
Procedure: The samples were placed in conditions of high temperature (60° C.), high humidity (92.5% humidity, 25° C.), high temperature and high humidity (60° C./75% humidity), and under illumination (including in the dark as control) for stability assay. For samples in a 60° C./75% thermostatic incubator and a 92.5% RH desiccator, the vials were sealed using films. On the films 5 small holes were provided to ensure that the sample was in sufficient contact with atmospheric air. For samples at 60° C., under illumination and in the dark, the vials were tightly capped (for the sample in the dark the vial was wrapped with tin foil). The samples were tested on day 10 for high humidity (92.5% humidity) condition, on days 5 and 10 for high temperature (60° C.) condition, on days 10 and 30 for high temperature and high humidity (60° C./75% humidity) condition, and on day 10 for illumination condition.

[2] = Crystalline form stability assay of crystalline form A - solvent water activity; assay type: physicochemical; settings: for Crystalline form (XRPD): 20° C., 4 days
Procedure: The solutions were centrifuged to give precipitates, and the precipitates were dried under vacuum at 50° C. and subjected to XRPD.

[3] = molecular target: T1, CXCR2 (Homo sapiens, UniProt P25025); test: PathHunter CXCR2 β-arrestin cell assay (CXCL8 agonist, chemiluminescence); assay type: cell-based; settings: listed as crystalline form A of the compound 1
T1 sequence (P25025 1-360): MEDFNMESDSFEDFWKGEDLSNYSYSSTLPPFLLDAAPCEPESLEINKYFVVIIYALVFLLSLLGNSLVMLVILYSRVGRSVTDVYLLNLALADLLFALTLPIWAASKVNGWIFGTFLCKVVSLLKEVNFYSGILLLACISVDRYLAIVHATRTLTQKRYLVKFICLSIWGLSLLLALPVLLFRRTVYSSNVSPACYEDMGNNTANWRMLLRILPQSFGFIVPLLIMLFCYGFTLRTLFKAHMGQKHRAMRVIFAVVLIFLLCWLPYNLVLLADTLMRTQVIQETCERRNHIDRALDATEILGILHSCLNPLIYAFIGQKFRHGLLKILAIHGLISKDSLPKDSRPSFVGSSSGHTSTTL
Procedure: CXCR2 β-arrestin cells (DiscoverX) of PathHunter® were cultured in standard conditions and inoculated at 20 μL/well to a 384-well white microplate. Before testing, the cells were incubated at 37° C. for an appropriate period of time. The test compound was serially 3-fold diluted in DMSO to give 8 concentrations. Shortly before testing, the serially diluted test samples were further diluted with test buffer to 5 folds of the test concentration. 5 μL of further diluted test samples were added to the cells and the cells were incubated at 37° C. for 30 min. The concentration of vehicle was 1%. 5 μL of 6×EC80 agonist (CXCL8) buffer was then added to the cells, and the cells were incubated at 37° C. for 90 min. The test signal was generated by adding 15 μL (50% v/v) of PathHunter detection mixture reagent in one portion and subsequently incubating the cells for 1 h. The chemiluminescence signal of the microplate was read by a PerkinElmer Envision™ instrument. The biological activities of the test compounds were analyzed by CBIS data analysis kit (ChemInnovation, CA), shown as IC50 values.

[4] = system: PPE-induced SD rat COPD model; test: Therapeutic effect on PPE-induced COPD model; assay type: in vivo, SD rats; settings: dose not stated (technical effects summary)
Excerpt: • To test the therapeutic effect of the compound on PPE-induced SD rat COPD model. Materials: • Animals: SD rats (male, 160-180 g, 6 weeks age) • Test compounds: porcine pancreatic elastase (Sigma, 0.068 U/μL); Danirixin, compound 1. • Grouping: 1) vehicle group • 2) COPD model group (porcine pancreatic elastase modeling group/solvent group) • 3) PPE+Danirixin (30 mpk) • 4) PPE+compound 1 (10 mpk) • 5) PPE+compound 1 (30 mpk) Procedures: • 1. Modeling: PPE was given retrolingually. • 2. Administration: an aqueous solution of 1% DMSO/20% PEG400/79% (HP-b-CD) was used as the vehicle, and the drugs were administrated intragastrically everyday at a volume of 2 mL/rat for 4 weeks. • 3. Endpoint: On day 29, pulmonary function test, sample collection, and inflammatory cell count in bronchoalveolar lavage fluid.
Bronchoalveolar lavage: The rats were sacrificed, and dissected at the neck. Trachea intubation was performed. 1 mL of cold […] at 4° C. was infused for 3 lavages, and the lavage fluids were combined. The combined lavage fluids were centrifuged at 1200 rpm/min for 5 min, and the supernatant was discarded. The cell suspension was collected;

[5] = high humidity (92.5% humidity, 25° C.), day 0
[6] = high humidity (92.5% humidity, 25° C.), day 10
[7] = high temperature (60° C.), day 0
[8] = high temperature (60° C.), day 5
[9] = high temperature (60° C.), day 10
[10] = in the dark for 10 days (control)

With `O=C(Nc1ccc(Cl)c(S(=O)(=O)[C@H]2CCCNC2)c1O)N[C@@H]1CCCc2cc(C(F)(F)F)oc21` [crystalline form A] as the compound, how does the Appearance ([1]; 60° C./75% humidity, day 0) read?
The Appearance was “White powder”.

What about the Crystalline form ([1]; 60° C./75% humidity, day 0) of the same compound?
Its Crystalline form is “Crystalline”.

And the Appearance ([1]; 60° C./75% humidity, day 10)?
The Appearance was “White powder”.

And the Crystalline form ([1]; 60° C./75% humidity, day 10)?
Its Crystalline form is “Crystalline”.

What about the Appearance ([1]; 60° C./75% humidity, day 30) of the same compound?
Its Appearance is “White powder”.

And the Crystalline form ([1]; 60° C./75% humidity, day 30)?
Its Crystalline form is “Crystalline”.

What about the Appearance [1, 5] of the same compound?
Its Appearance is “White powder”.

And the Crystalline form [1, 5]?
The Crystalline form was “Crystalline”.

And the Appearance [1, 6]?
The Appearance was “White powder”.

What about the Crystalline form [1, 6] of the same compound?
Its Crystalline form is “Crystalline”.

And the Appearance [1, 7]?
The Appearance was “White powder”.

And the Crystalline form [1, 7]?
The Crystalline form was “Crystalline”.

What about the Appearance [1, 8] of the same compound?
The Appearance was “White powder”.

And the Crystalline form [1, 8]?
The Crystalline form was “Crystalline”.

What about the Appearance [1, 9] of the same compound?
The Appearance was “White powder”.

What about the Crystalline form [1, 9] of the same compound?
The Crystalline form was “Crystalline”.

What about the Appearance [1, 10] of the same compound?
The Appearance was “White”.

And the Crystalline form [1, 10]?
Its Crystalline form is “Crystalline”.

What about the “Stability and druggability (conclusion in words)” value ([1]; listed as crystalline form A of compound 1) of the same compound?
Its value is “good stability and druggability”.

And the “Stability and druggability (conclusion in words)” value ([1]; listed as crystalline form A of the compound 1)?
Its value is “good stability and desirable druggability”.

And the Appearance ([1]; under illumination for 10 days)?
Its Appearance is “White”.

What about the Crystalline form ([1]; under illumination for 10 days) of the same compound?
Its Crystalline form is “Crystalline”.

What about the “Stability of the crystalline form in solvents (in words)” value ([2]; methanol, ethanol, methanol/water, water) of the same compound?
Its value is “stable in the above solvents”.

And the “Crystalline form (XRPD)” value ([2]; stirred in ethanol, 100 mg/mL)?
Its value is “Crystalline form A”.

What about the “Crystalline form (XRPD)” value ([2]; stirred in methanol, 100 mg/mL) of the same compound?
The value was “Crystalline form A”.

What about the “Crystalline form (XRPD)” value ([2]; stirred in methanol/water = 1/1.5, 100 mg/mL) of the same compound?
Its value is “Crystalline form A”.

And the “Crystalline form (XRPD)” value ([2]; stirred in water, 100 mg/mL)?
Its value is “Crystalline form A”.

And the “Antagonism against the CXCR2 receptor (in words)” value [3]?
The value was “significant inhibitory effect”.

And the Number of neutrophils [4]?
The Number of neutrophils was “significantly reduce the number of neutrophils”.

And the Pulmonary function [4]?
The Pulmonary function was “significantly improve the pulmonary function”.
